Assay results as given in ChEMBL document CHEMBL3885861, “Open TG-GATES”.

Organism: Rattus norvegicus
Assay: Open TG-GATES - Regimen: Daily Repeat
Assay type: toxicity, organism-based, Sprague-Dawley
Design: regimen Daily Repeat, gender Male, age 6 weeks
Conditions: in vivo, po, 100 mg/kg, route gavage, dose level Middle; for APTT / Bas / Eos / Fbg / Hb / Ht / Lym / MCH / MCHC / MCV / Mono / Neu / PT / Plat / RBC / Ret / WBC: tissue Blood; for KIDNEY_L / KIDNEY_R / KIDNEY_TOTAL: tissue Kidney; for LIVER: tissue Liver; for A/G / ALP / ALT / AST / BUN / CRE / Ca / Cl / DBIL / GLC / IP / K / LDH / Na / PL / RALB / TBIL / TC / TG / TP / gamma-GTP: tissue Plasma

CC[C@H]1[C@@H]2C[C@H]3[C@@H]4N(C)c5ccccc5[C@]45C[C@@H]([C@@H]2[C@H]5O)N3[C@@H]1O [AJMALINE]
TERMINAL_BW (72 h, time 3 day): 207.1 g
APTT (72 h, time 3 day): 16.3 s
Bas (72 h, time 3 day): 0%
Eos (72 h, time 3 day): 1%
Fbg (72 h, time 3 day): 202.6 mg/dL
Hb (72 h, time 3 day): 12.8 g/dL
Ht (72 h, time 3 day): 39.2%
Lym (72 h, time 3 day): 79%
MCH (72 h, time 3 day): 21.3 pg
MCHC (72 h, time 3 day): 32.8%
MCV (72 h, time 3 day): 65.1 fL
Mono (72 h, time 3 day): 6%
Neu (72 h, time 3 day): 13.6%
PT (72 h, time 3 day): 11.8 s
Plat (72 h, time 3 day): 114.8 x10_4/uL
RBC (72 h, time 3 day): 601.8 x10_4/ul
Ret (72 h, time 3 day): 7.8%
WBC (72 h, time 3 day): 101.3 x10_2/uL
KIDNEY_L (72 h, time 3 day): 1 g
KIDNEY_R (72 h, time 3 day): 0.9 g
KIDNEY_TOTAL (72 h, time 3 day): 1.9 g
LIVER (72 h, time 3 day): 9.7 g
A/G (72 h, time 3 day): 1.9
ALP (72 h, time 3 day): 888.2 IU/L
ALT (72 h, time 3 day): 39.2 IU/L
AST (72 h, time 3 day): 63 IU/L
BUN (72 h, time 3 day): 16.2 mg/dL
CRE (72 h, time 3 day): 0.5 mg/dL
Ca (72 h, time 3 day): 10.6 mg/dL
Cl (72 h, time 3 day): 102.2 meq/L
DBIL (72 h, time 3 day): 0.04 mg/dL
GLC (72 h, time 3 day): 201 mg/dL
IP (72 h, time 3 day): 7.9 mg/dL
K (72 h, time 3 day): 4.3 meq/L
LDH (72 h, time 3 day): 98.6 IU/L
Na (72 h, time 3 day): 139.2 meq/L
PL (72 h, time 3 day): 138 mg/dL
RALB (72 h, time 3 day): 3.5 g/dL
TBIL (72 h, time 3 day): 0.3 mg/dL
TC (72 h, time 3 day): 71.8 mg/dL
TG (72 h, time 3 day): 81 mg/dL
TP (72 h, time 3 day): 5.3 g/dL
gamma-GTP (72 h, time 3 day): 1 IU/L
TERMINAL_BW ([…], time 7 day): 245.4 g
TERMINAL_BW ([…], time 14 day): 299.4 g
TERMINAL_BW ([…], time 28 day): 363.5 g
APTT ([…], time 7 day): 16.6 s
Bas ([…], time 7 day): 0%
Eos ([…], time 7 day): 0.8%
Fbg ([…], time 7 day): 231.4 mg/dL
Hb ([…], time 7 day): 13.3 g/dL
Ht ([…], time 7 day): 40.4%
Lym ([…], time 7 day): 78.8%
MCH ([…], time 7 day): 21.1 pg
MCHC ([…], time 7 day): 32.8%
MCV ([…], time 7 day): 64.4 fL
Mono ([…], time 7 day): 7.6%
Neu ([…], time 7 day): 13%
PT ([…], time 7 day): 11.3 s
Plat ([…], time 7 day): 128.6 x10_4/uL
RBC ([…], time 7 day): 628 x10_4/ul
Ret ([…], time 7 day): 6.9%
WBC ([…], time 7 day): 119.7 x10_2/uL
APTT ([…], time 14 day): 16.9 s
Bas ([…], time 14 day): 0%
Eos ([…], time 14 day): 0.8%
Fbg ([…], time 14 day): 231.4 mg/dL
Hb ([…], time 14 day): 14.1 g/dL
Ht ([…], time 14 day): 42.6%
Lym ([…], time 14 day): 80.6%
MCH ([…], time 14 day): 20.4 pg
MCHC ([…], time 14 day): 33.1%
MCV ([…], time 14 day): 61.7 fL
Mono ([…], time 14 day): 5.6%
Neu ([…], time 14 day): 13.4%
PT ([…], time 14 day): 11.2 s
Plat ([…], time 14 day): 140 x10_4/uL
RBC ([…], time 14 day): 690 x10_4/ul
Ret ([…], time 14 day): 4.7%
WBC ([…], time 14 day): 140 x10_2/uL
APTT ([…], time 28 day): 16.5 s
Bas ([…], time 28 day): 0%
Eos ([…], time 28 day): 1%
Fbg ([…], time 28 day): 218.6 mg/dL
Hb ([…], time 28 day): 15.3 g/dL
Ht ([…], time 28 day): 45.6%
Lym ([…], time 28 day): 83%
MCH ([…], time 28 day): 19.2 pg
MCHC ([…], time 28 day): 33.4%
MCV ([…], time 28 day): 57.5 fL
Mono ([…], time 28 day): 4.8%
Neu ([…], time 28 day): 11.2%
PT ([…], time 28 day): 11.5 s
Plat ([…], time 28 day): 123.8 x10_4/uL
RBC ([…], time 28 day): 795 x10_4/ul
Ret ([…], time 28 day): 2.1%
WBC ([…], time 28 day): 123.3 x10_2/uL
KIDNEY_L ([…], time 7 day): 1 g
KIDNEY_R ([…], time 7 day): 1.1 g
KIDNEY_TOTAL ([…], time 7 day): 2.1 g
KIDNEY_L ([…], time 14 day): 1.2 g
KIDNEY_R ([…], time 14 day): 1.2 g
KIDNEY_TOTAL ([…], time 14 day): 2.3 g
KIDNEY_L ([…], time 28 day): 1.3 g
KIDNEY_R ([…], time 28 day): 1.3 g
KIDNEY_TOTAL ([…], time 28 day): 2.6 g
LIVER ([…], time 7 day): 12.2 g
LIVER ([…], time 14 day): 13.4 g
LIVER ([…], time 28 day): 14.6 g
A/G ([…], time 7 day): 2
ALP ([…], time 7 day): 770 IU/L
ALT ([…], time 7 day): 32.8 IU/L
AST ([…], time 7 day): 61.4 IU/L
BUN ([…], time 7 day): 18 mg/dL
CRE ([…], time 7 day): 0.5 mg/dL
Ca ([…], time 7 day): 11.6 mg/dL
Cl ([…], time 7 day): 103.8 meq/L
DBIL ([…], time 7 day): 0.012 mg/dL
GLC ([…], time 7 day): 219.2 mg/dL
IP ([…], time 7 day): 8.7 mg/dL
K ([…], time 7 day): 4.7 meq/L
LDH ([…], time 7 day): 106.8 IU/L
Na ([…], time 7 day): 142.8 meq/L
PL ([…], time 7 day): 154.4 mg/dL
RALB ([…], time 7 day): 3.8 g/dL
TBIL ([…], time 7 day): 0.3 mg/dL
TC ([…], time 7 day): 80 mg/dL
TG ([…], time 7 day): 94.6 mg/dL
TP ([…], time 7 day): 5.7 g/dL
gamma-GTP ([…], time 7 day): 1.4 IU/L
A/G ([…], time 14 day): 1.9
ALP ([…], time 14 day): 802.8 IU/L
ALT ([…], time 14 day): 31.8 IU/L
AST ([…], time 14 day): 65.6 IU/L
BUN ([…], time 14 day): 19.4 mg/dL
CRE ([…], time 14 day): 0.6 mg/dL
Ca ([…], time 14 day): 11 mg/dL
Cl ([…], time 14 day): 104 meq/L
DBIL ([…], time 14 day): 0.012 mg/dL
GLC ([…], time 14 day): 207 mg/dL
IP ([…], time 14 day): 7.6 mg/dL
K ([…], time 14 day): 4.7 meq/L
LDH ([…], time 14 day): 116.4 IU/L
Na ([…], time 14 day): 140.6 meq/L
PL ([…], time 14 day): 153.2 mg/dL
RALB ([…], time 14 day): 3.7 g/dL
TBIL ([…], time 14 day): 0.4 mg/dL
TC ([…], time 14 day): 77 mg/dL
TG ([…], time 14 day): 109.6 mg/dL
TP ([…], time 14 day): 5.7 g/dL
gamma-GTP ([…], time 14 day): 1.2 IU/L
A/G ([…], time 28 day): 1.8
ALP ([…], time 28 day): 699.2 IU/L
ALT ([…], time 28 day): 33.4 IU/L
AST ([…], time 28 day): 59.8 IU/L
BUN ([…], time 28 day): 17.8 mg/dL
CRE ([…], time 28 day): 0.6 mg/dL
Ca ([…], time 28 day): 10.2 mg/dL
Cl ([…], time 28 day): 104.4 meq/L
DBIL ([…], time 28 day): 0.036 mg/dL
GLC ([…], time 28 day): 189.8 mg/dL
IP ([…], time 28 day): 6.6 mg/dL
K ([…], time 28 day): 4.5 meq/L
LDH ([…], time 28 day): 87.6 IU/L
Na ([…], time 28 day): 141.2 meq/L
PL ([…], time 28 day): 131.6 mg/dL
RALB ([…], time 28 day): 3.9 g/dL
TBIL ([…], time 28 day): 0.3 mg/dL
TC ([…], time 28 day): 60.6 mg/dL
TG ([…], time 28 day): 108.4 mg/dL
TP ([…], time 28 day): 6 g/dL
gamma-GTP ([…], time 28 day): 1.6 IU/L
